These results are taken from US20260053792A1, “POLYSUBSTITUTED TETRAHYDROISOQUINOLINE COMPOUNDS, METHOD FOR PREPARING SAME, PHARMACEUTICAL COMPOSITION THEREOF, AND USE THEREOF” (SHANGHAI INSTITUTE OF MATERIA MEDICA, CHINESE ACADEMY OF …, priority 2022, published 2026).

This series is described as follows: Tissue distribution of compound A26 in mice (plasma / cerebrospinal fluid drug concentration). The format is in vivo. As to conditions: for Kp at 0.25 h / Kp at 0.5 h / concentration at 15 min / concentration at 30 min: mouse; for Kp at 0.25 h / Kp at 0.5 h: brain/plasma, read-out: Brain to plasma drug concentration ratio (Cbrain/Cplasma); for Kp at 0.25 h / concentration at 15 min: 15 min; for Kp at 0.5 h / concentration at 30 min: 30 min. The procedure:
The drug concentrations in plasma or cerebrospinal fluid at two time points of 15 minutes and 30 minutes under three administration routes: oral (20 mg/kg), intraperitoneal injection (10 mg/kg), and intravenous injection (5 mg/kg) were measured.

Setting [1] is: cerebrospinal fluid, IP 10 mg/kg, read-out: cerebrospinal fluid.
[2] abbreviates: cerebrospinal fluid, IV 5 mg/kg, read-out: cerebrospinal fluid.
Where [3] appears, read: cerebrospinal fluid, PO 20 mg/kg, read-out: cerebrospinal fluid.
The mark [4] stands for this setting: plasma, IP 10 mg/kg, read-out: Cardiac plasma.
Setting [5] is: plasma, IV 5 mg/kg, read-out: Cardiac plasma.
Where [6] appears, read: plasma, PO 20 mg/kg, read-out: Cardiac plasma.

The structures appear in SMILES notation. Like-named read-outs stand apart in the source and are kept apart here.

As for `COc1cc2c(cc1OC)C(CCc1c[nH]c3ccccc13)N(CC1CCOCC1)CC2` (stereo not shown) [Compound A26, 1-(2-(1H-indol-3-yl)ethyl)-6,7-dimethoxy-2-((tetrahydro-2H-pyran-4-yl)methyl)-1,2,3,4-tetrahydroisoquinoline], for the setting “conclusion from brain/plasma ratios”, the “blood-brain barrier penetration ability and brain targeting property” value is given as “good”. In addition, the Kp at 0.25 h runs as follows: (IP 10 mg/kg) 2.12; (IV 5 mg/kg) 3.3; (PO 20 mg/kg) 3.4. In addition, the Kp at 0.5 h (IP 10 mg/kg) was determined as 1.91, the Kp at 0.5 h (IV 5 mg/kg) was determined as 2.2 and the Kp at 0.5 h (PO 20 mg/kg) amounted to 1.6. For the same compound, the concentration at 15 min amounted to 665 ± 49 ng/g under setting [1]; 1560 ± 245 ng/g under setting [2]; 224 ± 363 ng/g under setting [3]; 313 ± 15 ng/mL under setting [4]; 466 ± 85 ng/mL under setting [5]; 65.3 ± 94.7 ng/mL under setting [6]. In addition, the concentration at 30 min by setting is: under setting [1], 355 ± 106 ng/g; under setting [2], 292 ± 69 ng/g; under setting [3], 32.4 ± 11.9 ng/g; under setting [4], 186 ± 57 ng/mL; under setting [5], 135 ± 47 ng/mL; under setting [6], 20.7 ± 6.1 ng/mL.
